Results: the NIST ThermoML archive (doi:10.1021/acs.jced.8b00132)
Values joined by “and” are separate entries in the source; they are usually repeats but may differ in a detail not shown here. Identical values can stand only once. Numbers after ± are expanded uncertainties.

Conditions: Liquid, transient hot wire

O=C(C(F)(F)C(F)(F)F)C(F)(C(F)(F)F)C(F)(F)F [dodecafluoro-2-methylpentan-3-one]
Conditions	thermal conductivity
212.68 K, 43023 kPa	0.08262 ± 0.0017 W/m/K
212.69 K, 34811 kPa	0.08103 ± 0.0017 W/m/K
212.7 K, 26854 kPa	0.0791 ± 0.0016 W/m/K
212.7 K, 34796 kPa	0.08096 ± 0.0017 W/m/K
212.71 K, 19432 kPa	0.07795 ± 0.0016 W/m/K
212.71 K, 26846 kPa	0.07958 ± 0.0016 W/m/K
212.72 K, 19443 kPa	0.07837 ± 0.0016 W/m/K
212.73 K, 12670 kPa	0.07626 ± 0.0016 W/m/K
212.73 K, 12671 kPa	0.0764 ± 0.0016 W/m/K
212.75 K, 5793 kPa	0.07492 ± 0.0015 W/m/K
212.75 K, 5801 kPa	0.0748 ± 0.0015 W/m/K
212.77 K, 172 kPa	0.07396 ± 0.0015 W/m/K
212.79 K, 181 kPa	0.07378 ± 0.0015 W/m/K
213.1 K, 67106 kPa	0.08599 ± 0.0018 W/m/K and 0.08628 ± 0.0018 W/m/K
213.11 K, 60772 kPa	0.08539 ± 0.0018 W/m/K
213.11 K, 60780 kPa	0.08539 ± 0.0018 W/m/K
213.13 K, 52081 kPa	0.08389 ± 0.0017 W/m/K
213.13 K, 52089 kPa	0.08383 ± 0.0017 W/m/K
213.19 K, 43027 kPa	0.08245 ± 0.0017 W/m/K
213.19 K, 43036 kPa	0.08268 ± 0.0017 W/m/K
213.21 K, 34805 kPa	0.08073 ± 0.0017 W/m/K
213.21 K, 34810 kPa	0.08114 ± 0.0017 W/m/K
213.23 K, 26845 kPa	0.07947 ± 0.0016 W/m/K
213.24 K, 26846 kPa	0.07959 ± 0.0016 W/m/K
213.25 K, 19430 kPa	0.07775 ± 0.0016 W/m/K
213.25 K, 19435 kPa	0.0774 ± 0.0016 W/m/K
213.27 K, 12661 kPa	0.07617 ± 0.0016 W/m/K
213.28 K, 12679 kPa	0.0761 ± 0.0016 W/m/K
213.31 K, 5806 kPa	0.07469 ± 0.0015 W/m/K
213.31 K, 5813 kPa	0.07468 ± 0.0015 W/m/K
213.33 K, 173 kPa	0.07373 ± 0.0015 W/m/K
213.33 K, 180 kPa	0.07364 ± 0.0015 W/m/K
213.62 K, 67087 kPa	0.08645 ± 0.0018 W/m/K
213.63 K, 67097 kPa	0.08628 ± 0.0018 W/m/K
213.64 K, 60766 kPa	0.08543 ± 0.0018 W/m/K
213.65 K, 60770 kPa	0.08553 ± 0.0018 W/m/K
213.67 K, 52073 kPa	0.08388 ± 0.0017 W/m/K
213.67 K, 52074 kPa	0.08401 ± 0.0017 W/m/K
213.74 K, 43029 kPa	0.08234 ± 0.0017 W/m/K
213.75 K, 43019 kPa	0.08232 ± 0.0017 W/m/K
241.26 K, 25699 kPa	0.0759 ± 0.0016 W/m/K
241.27 K, 25696 kPa	0.07599 ± 0.0016 W/m/K
241.32 K, 12027 kPa	0.07227 ± 0.0015 W/m/K and 0.07234 ± 0.0015 W/m/K
241.33 K, 18761 kPa	0.07423 ± 0.0015 W/m/K
241.33 K, 18763 kPa	0.0739 ± 0.0015 W/m/K
241.38 K, 209 kPa	0.06892 ± 0.0014 W/m/K and 0.06884 ± 0.0014 W/m/K
241.39 K, 5841 kPa	0.07049 ± 0.0014 W/m/K
241.39 K, 5844 kPa	0.07044 ± 0.0014 W/m/K
241.62 K, 33678 kPa	0.07765 ± 0.0016 W/m/K
241.63 K, 33700 kPa	0.07761 ± 0.0016 W/m/K
241.64 K, 41986 kPa	0.0795 ± 0.0016 W/m/K
241.65 K, 41994 kPa	0.07941 ± 0.0016 W/m/K
241.65 K, 50824 kPa	0.0813 ± 0.0017 W/m/K
241.65 K, 50825 kPa	0.08126 ± 0.0017 W/m/K
241.66 K, 60321 kPa	0.08312 ± 0.0017 W/m/K
241.66 K, 60336 kPa	0.08322 ± 0.0017 W/m/K
241.67 K, 25701 kPa	0.07567 ± 0.0016 W/m/K
241.68 K, 25692 kPa	0.0752 ± 0.0015 W/m/K
241.68 K, 68451 kPa	0.08416 ± 0.0017 W/m/K
241.68 K, 68475 kPa	0.0844 ± 0.0017 W/m/K
241.74 K, 18761 kPa	0.07395 ± 0.0015 W/m/K
241.75 K, 12028 kPa	0.07237 ± 0.0015 W/m/K
241.75 K, 18761 kPa	0.07396 ± 0.0015 W/m/K
241.76 K, 12022 kPa	0.07209 ± 0.0015 W/m/K
241.83 K, 210 kPa	0.06806 ± 0.0014 W/m/K
241.83 K, 5847 kPa	0.06983 ± 0.0014 W/m/K
241.84 K, 211 kPa	0.06786 ± 0.0014 W/m/K
241.84 K, 5846 kPa	0.07 ± 0.0014 W/m/K
242.08 K, 33680 kPa	0.0771 ± 0.0016 W/m/K
242.08 K, 60313 kPa	0.08307 ± 0.0017 W/m/K
242.09 K, 33695 kPa	0.07709 ± 0.0016 W/m/K
242.09 K, 41985 kPa	0.07857 ± 0.0016 W/m/K
242.09 K, 50804 kPa	0.081 ± 0.0017 W/m/K
242.09 K, 50825 kPa	0.08098 ± 0.0017 W/m/K
242.1 K, 41988 kPa	0.07839 ± 0.0016 W/m/K
242.1 K, 60314 kPa	0.08294 ± 0.0017 W/m/K
242.1 K, 68448 kPa	0.08374 ± 0.0017 W/m/K
242.11 K, 68433 kPa	0.08377 ± 0.0017 W/m/K
242.14 K, 25700 kPa	0.07474 ± 0.0015 W/m/K
242.14 K, 25703 kPa	0.07481 ± 0.0015 W/m/K
242.23 K, 18760 kPa	0.07343 ± 0.0015 W/m/K
242.23 K, 18761 kPa	0.07341 ± 0.0015 W/m/K
242.24 K, 12027 kPa	0.07149 ± 0.0015 W/m/K
242.24 K, 12030 kPa	0.07138 ± 0.0015 W/m/K
